Our source for the melting point values is patent US6756384B2, “Imidazole compounds” (Novo Nordisk A/S, priority 2000, dated 2004).

Where a name gives a salt, the structure may show the parent alone.

What is called melting point is the temperature, or range, at which the solid turns liquid. As to `C[C@@H](NC(=O)C1CCc2[nH]cnc2C1)c1cccc2ccccc12.Cl` (some centres unmarked), the melting point was 84 to 85 °C. Consider `Cl.O=C(NCc1cccc2ccccc12)C1CCc2[nH]cnc2C1` (centres unmarked), for which the melting point is 142 to 144 °C.

With `Cl.O=C(Cc1ccc(Cl)cc1)NC1CCc2[nH]cnc2C1` (centres unmarked), the melting point lay in the range of 222 to 224 °C. With `O=C(NCc1ccccc1)C1CCc2[nH]cnc2C1.O=C(O)C(=O)O` (centres unmarked) the figure was 130 to 132 °C. To `O=C(NCCc1ccccc1)C1CCc2[nH]cnc2C1.O=C(O)C(=O)O` (centres unmarked) belongs 197 to 199 °C; to `Cl.O=C(NCCCc1ccc(Cl)cc1)C1CCc2[nH]cnc2C1` (centres unmarked), 146 to 148 °C; to `O=C(NCc1ccccc1Cl)C1CCCc2[nH]cnc21` (centres unmarked) (as salt: hydrochloride) [Example 89, 4,5,6,7-Tetrahydro-1H-benzimidazole-4-carboxylic acid 2-chlorobenzylamide], 165 to 167 °C. As to `CN(Cc1ccccc1)C(=O)C1CCCc2[nH]cnc21` (centres unmarked) (as salt: hydrochloride) [Example 90, 4,5,6,7-Tetrahydro-1H-benzimidazole-4-carboxylic acid benzylmethylamide], the melting point was in the range of 211 to 213 °C. To `O=C(NCCc1ccccc1)C1CCCc2[nH]cnc21` (centres unmarked) (as salt: hydrochloride) [Example 91, 4,5,6,7-Tetrahydro-1H-benzimidazole-4-carboxylic acid phenethylamide] belongs 177 to 179 °C. Turning to `C[C@H](NC(=O)C1CCc2[nH]cnc2C1)c1cccc2ccccc12` (some centres unmarked) [Example 1], the melting point fell in the range of 158 to 160 °C. With `O=C(NCc1c(Cl)cccc1Oc1ccccc1)C1CCc2[nH]cnc2C1` (centres unmarked) [Example 22, 4,5,6,7-Tetrahydro-1H-benzimidazole-5-carboxylic Acid N-(2-Chloro-6-phenoxy-benzyl)amide] the figure was 197 to 199 °C.
